PubChem BioAssay (NCI)
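Grown in 96-well plates, cells were treated for 48 hours with each compound at five concentrations. Insufficient inhibition: endpoint recorded as highest concentration tested. The concentration for full growth arrest is given as TGI.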

How the values were obtained:
Assay in all cases: NCI-60 cell line screen, 48 h
[1] = system: SK-MEL-2 melanoma
[2] = system: SW-620 colon
[3] = system: NCI-H23 lung
[4] = system: NCI/ADR-RES ovarian
[5] = system: HS 578T breast
[6] = system: SK-MEL-5 melanoma
[7] = system: SR leukemia
[8] = system: MDA-MB-231 breast
[9] = system: UO-31 renal
[10] = system: HT29 colon
[11] = system: RXF 393 renal
[12] = system: PC-3 prostate
[13] = system: CCRF-CEM leukemia
[14] = system: U251 CNS
[15] = system: LOX IMVI melanoma
[16] = system: HCT-15 colon
[17] = system: 786-0 renal
[18] = system: CAKI-1 renal
[19] = system: NCI-H460 lung
[20] = system: OVCAR-4 ovarian
[21] = system: MCF7 breast
[22] = system: T-47D breast
[23] = system: BT-549 breast
[24] = system: SK-MEL-28 melanoma
[25] = system: OVCAR-3 ovarian
[26] = system: DU-145 prostate
[27] = system: SF-295 CNS
[28] = system: HCC-2998 colon
[29] = system: COLO 205 colon
[30] = system: M14 melanoma
[31] = system: HOP-92 NSCLC
[32] = system: OVCAR-8 ovarian
[33] = system: IGROV1 ovarian
[34] = system: SK-OV-3 ovarian
[35] = system: TK-10 renal
[36] = system: EKVX NSCLC
[37] = system: HCT-116 colon
[38] = system: MDA-N
[39] = system: SNB-19 CNS
[40] = system: NCI-H522 lung
[41] = system: A549 NSCLC
[42] = system: K-562 leukemia
[43] = system: RPMI-8226 leukemia
[44] = system: KM12 colon
[45] = system: MOLT-4 leukemia
[46] = system: A498 renal
[47] = system: SNB-75 CNS
[48] = system: UACC-257 melanoma
[49] = system: SF-539 CNS
[50] = system: MDA-MB-435
[51] = system: HL-60(TB) leukemia
[52] = system: MALME-3M melanoma
[53] = system: OVCAR-5 ovarian
[54] = system: NCI-H226 lung
[55] = system: SF-268 CNS
[56] = system: HOP-62 NSCLC
[57] = system: SN12C renal
[58] = system: UACC-62 melanoma
[59] = system: ACHN renal

COc1cc(CNC(=O)CCCCCCCCCCSC#N)ccc1O
TGI [1]: 28.8 µM | TGI [2]: 36.4 µM | TGI [3]: 43 µM | TGI [4]: 59.7 µM | TGI [5]: 40.9 µM | TGI [6]: 19.4 µM | TGI [7]: 91.5 µM | TGI [8]: > 100 µM | TGI [9]: 21.9 µM | TGI [10]: 87.2 µM | TGI [11]: 21.9 µM | TGI [12]: 27.5 µM | TGI [13]: 62.9 µM | TGI [14]: 34.1 µM | TGI [15]: 33 µM | TGI [16]: 23 µM | TGI [17]: 41.5 µM | TGI [18]: 36.8 µM | TGI [19]: 38.2 µM | TGI [20]: 57.6 µM | TGI [21]: 34.9 µM | TGI [22]: 48.1 µM | TGI [23]: 44.6 µM | TGI [24]: 21.1 µM | TGI [25]: 26.2 µM | TGI [26]: 34.3 µM | TGI [27]: 37.4 µM | TGI [28]: > 100 µM | TGI [29]: 94.5 µM | TGI [30]: 21.5 µM | TGI [31]: 34.8 µM | TGI [32]: 43.2 µM | TGI [33]: 22.9 µM | TGI [34]: 25.8 µM | TGI [35]: 44 µM | TGI [36]: 54.6 µM | TGI [37]: 28.1 µM | TGI [38]: 31.3 µM | TGI [39]: 48.3 µM | TGI [40]: 27.8 µM | TGI [41]: 42.1 µM | TGI [42]: 88.5 µM | TGI [43]: 59.5 µM | TGI [44]: 19.3 µM | TGI [45]: 31.1 µM | TGI [46]: 30.3 µM | TGI [47]: 29.3 µM | TGI [48]: 41.1 µM | TGI [49]: 37.1 µM | TGI [50]: 24.4 µM | TGI [51]: 28.9 µM | TGI [52]: > 100 µM | TGI [53]: 85.8 µM | TGI [54]: 37.8 µM

CC(=O)Oc1ccc(C2SCc3nc4ccccc4n32)cc1 (configuration not stated)
TGI [1]: 80.2 µM | TGI [2]: > 100 µM | TGI [3]: > 100 µM | TGI [4]: 51.6 µM | TGI [5]: > 100 µM | TGI [6]: > 100 µM | TGI [7]: > 73 µM | TGI [8]: > 100 µM | TGI [9]: > 61.5 µM | TGI [10]: > 100 µM | TGI [11]: 77.3 µM | TGI [12]: > 100 µM | TGI [13]: > 100 µM | TGI [14]: > 100 µM | TGI [15]: > 100 µM | TGI [16]: > 100 µM | TGI [17]: > 100 µM | TGI [55]: 70.8 µM | TGI [18]: > 93.2 µM | TGI [19]: > 100 µM | TGI [20]: > 100 µM | TGI [56]: > 100 µM | TGI [21]: > 100 µM | TGI [57]: > 100 µM | TGI [22]: > 100 µM | TGI [58]: > 100 µM | TGI [23]: > 53.3 µM | TGI [24]: > 100 µM | TGI [25]: > 100 µM | TGI [26]: > 100 µM | TGI [27]: > 100 µM | TGI [28]: 69 µM | TGI [29]: 56.3 µM | TGI [30]: > 100 µM | TGI [31]: > 100 µM | TGI [32]: > 100 µM | TGI [33]: > 100 µM | TGI [34]: 95.3 µM | TGI [35]: > 100 µM | TGI [36]: > 100 µM | TGI [37]: > 100 µM | TGI [38]: > 63.8 µM | TGI [39]: > 100 µM | TGI [40]: 69.2 µM | TGI [59]: > 100 µM | TGI [41]: > 100 µM | TGI [42]: > 100 µM | TGI [43]: > 100 µM | TGI [44]: 81.8 µM | TGI [45]: 46.4 µM | TGI [46]: 73.8 µM | TGI [47]: 77.2 µM | TGI [48]: > 100 µM | TGI [49]: > 100 µM | TGI [50]: 59.4 µM | TGI [51]: 37.8 µM | TGI [52]: > 100 µM | TGI [53]: > 100 µM
